# In PubChem BioAssay AID1963837 (Molecular Pharmacology Branch, DTP, NCI, 2024):
# System: 843126-344-R-J1-PDC complex spheroid viability
# Test: Anticancer human tumor 843126-344-R-J1-PDC patient-derived melanoma cell line growth inhibition [POLQ]
# Settings: for IC50: curve of first compound; for viability, T/C: stronger effect = lower value
# Method in brief: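 Growth inhibition in 3D: complex spheroids (tumor PDC, HUVEC, MSC) treated with POLQ inhibitor combinations; where Cmax unknown, highest tested concentration 10 microM, except SN-38 at 1 microM.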
# [1] = second compound 0.0316 µM, first compound 0.0316 µM
# [2] = second compound 0.0316 µM, first compound 0.1 µM
# [3] = second compound 0.0316 µM, first compound 0.316 µM
# [4] = second compound 0.0316 µM, first compound 1 µM
# [5] = second compound 0.0316 µM, first compound 3.16 µM
# [6] = second compound 0.0316 µM, first compound 10 µM
# [7] = second compound 0.1 µM, first compound 0.0316 µM
# [8] = second compound 0.1 µM, first compound 0.1 µM
# [9] = second compound 0.1 µM, first compound 0.316 µM
# [10] = second compound 0.1 µM, first compound 1 µM
# [11] = second compound 0.1 µM, first compound 3.16 µM
# [12] = second compound 0.1 µM, first compound 10 µM
# [13] = second compound 0.316 µM, first compound 0.0316 µM
# [14] = second compound 0.316 µM, first compound 0.1 µM
# [15] = second compound 0.316 µM, first compound 0.316 µM
# [16] = second compound 0.316 µM, first compound 1 µM
# [17] = second compound 0.316 µM, first compound 3.16 µM
# [18] = second compound 0.316 µM, first compound 10 µM
# [19] = second compound 1 µM, first compound 0.0316 µM
# [20] = second compound 1 µM, first compound 0.1 µM
# [21] = second compound 1 µM, first compound 0.316 µM
# [22] = second compound 1 µM, first compound 1 µM
# [23] = second compound 1 µM, first compound 3.16 µM
# [24] = second compound 1 µM, first compound 10 µM
# [25] = second compound 3.16 µM, first compound 0.0316 µM
# [26] = second compound 3.16 µM, first compound 0.1 µM
# [27] = second compound 3.16 µM, first compound 0.316 µM
# [28] = second compound 3.16 µM, first compound 1 µM
# [29] = second compound 3.16 µM, first compound 3.16 µM
# [30] = second compound 3.16 µM, first compound 10 µM
# [31] = second compound 10 µM, first compound 0.0316 µM
# [32] = second compound 10 µM, first compound 0.1 µM
# [33] = second compound 10 µM, first compound 0.316 µM
# [34] = second compound 10 µM, first compound 1 µM
# [35] = second compound 10 µM, first compound 3.16 µM
# [36] = second compound 10 µM, first compound 10 µM
# 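Wherever viability, T/C is given: spheroids exposed to drugs for seven days before readout.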
structure (smiles),measurement,setting,value
O=C(c1cc(Cc2n[nH]c(=O)c3ccccc23)ccc1F)N1CCN(C(=O)C2CC2)CC1 + Cc1cccc(N(C)C(=O)C2C(O)CCN2c2nc(C)cc(C(F)(F)F)c2C#N)c1,IC50,second compound 0.0316 µM,> 10 µM
same,IC50,second compound 0.1 µM,> 10 µM
same,IC50,second compound 0.316 µM,> 10 µM
same,IC50,second compound 1 µM,> 10 µM
same,IC50,second compound 3.16 µM,> 10 µM
same,IC50,second compound 10 µM,> 10 µM
same,"viability, T/C",[1],116%
same,"viability, T/C",[2],99.2%
same,"viability, T/C",[3],84.3%
same,"viability, T/C",[4],82.3%
same,"viability, T/C",[5],91.9%
same,"viability, T/C",[6],74.2%
same,"viability, T/C",[7],110%
same,"viability, T/C",[8],98.7%
same,"viability, T/C",[9],92.7%
same,"viability, T/C",[10],90.9%
same,"viability, T/C",[11],93.7%
same,"viability, T/C",[12],67.1%
same,"viability, T/C",[13],95.7%
same,"viability, T/C",[14],78.8%
same,"viability, T/C",[15],89.4%
same,"viability, T/C",[16],91.5%
same,"viability, T/C",[17],82%
same,"viability, T/C",[18],75.7%
same,"viability, T/C",[19],85.4%
same,"viability, T/C",[20],97.8%
same,"viability, T/C",[21],96.9%
same,"viability, T/C",[22],97.8%
same,"viability, T/C",[23],84.1%
same,"viability, T/C",[24],77.6%
same,"viability, T/C",[25],91.5%
same,"viability, T/C",[26],83.3%
same,"viability, T/C",[27],88.8%
same,"viability, T/C",[28],89.6%
same,"viability, T/C",[29],84.2%
same,"viability, T/C",[30],71.2%
same,"viability, T/C",[31],83.8%
same,"viability, T/C",[32],102%
same,"viability, T/C",[33],85.8%
same,"viability, T/C",[34],92.1%
same,"viability, T/C",[35],103%
same,"viability, T/C",[36],78.8%
COc1cc(C2c3cc4c(cc3C(OC3OC5COC(C)OC5C(O)C3O)C3COC(=O)C23)OCO4)cc(OC)c1O (centres undefined) + Cc1cccc(N(C)C(=O)C2C(O)CCN2c2nc(C)cc(C(F)(F)F)c2C#N)c1,IC50,second compound 0.0316 µM,8.76 µM
same,IC50,second compound 0.1 µM,8.26 µM
same,IC50,second compound 0.316 µM,6.01 µM
same,IC50,second compound 1 µM,> 10 µM
same,IC50,second compound 3.16 µM,5.47 µM
same,IC50,second compound 10 µM,3.78 µM
same,"viability, T/C",[1],86.5%
same,"viability, T/C",[2],81.5%
same,"viability, T/C",[3],77.9%
same,"viability, T/C",[4],92.3%
same,"viability, T/C",[5],55.3%
same,"viability, T/C",[6],49.3%
same,"viability, T/C",[7],83.2%
same,"viability, T/C",[8],103%
same,"viability, T/C",[9],100%
same,"viability, T/C",[10],68.9%
same,"viability, T/C",[11],72.8%
same,"viability, T/C",[12],45.5%
same,"viability, T/C",[13],82.1%
same,"viability, T/C",[14],84.1%
same,"viability, T/C",[15],92.7%
same,"viability, T/C",[16],71.8%
same,"viability, T/C",[17],61.2%
same,"viability, T/C",[18],42.1%
same,"viability, T/C",[19],86.1%
same,"viability, T/C",[20],90.3%
same,"viability, T/C",[21],86.6%
same,"viability, T/C",[22],82.3%
same,"viability, T/C",[23],56.9%
same,"viability, T/C",[24],50.2%
same,"viability, T/C",[25],77.9%
same,"viability, T/C",[26],79.7%
same,"viability, T/C",[27],84.4%
same,"viability, T/C",[28],75.9%
same,"viability, T/C",[29],54.2%
same,"viability, T/C",[30],45.5%
same,"viability, T/C",[31],84.1%
same,"viability, T/C",[32],83.1%
same,"viability, T/C",[33],79%
same,"viability, T/C",[34],74%
same,"viability, T/C",[35],50.6%
same,"viability, T/C",[36],44.8%
